Reference: ChEMBL document CHEMBL1909046, “DrugMatrix in vitro pharmacology data”
Where a SMILES comes first, the peptide text is derived from it. Bridges are numbered along the chain shown (N, C = ends). [ ]: non-standard residue; d: D form. The star is where a group is joined. Ileψ(thiazoline)Cys = CC[C@H](C)[C@H](N)C1=N[C@H](C(=O)*)CS1; dOrn = NCCC[C@@H](N)C(=O)O

What was measured:
[1] = target: T1, D(4) dopamine receptor (Homo sapiens, UniProt P21917); assay: DRUGMATRIX: Dopamine D4.2 radioligand binding (ligand: [3H] Spiperone); type: cell membranes, CHO-K1, Membrane; details: cho-k1; Not Active = under 50% inhibition at 10 µM
T1 sequence (P21917 whole entry): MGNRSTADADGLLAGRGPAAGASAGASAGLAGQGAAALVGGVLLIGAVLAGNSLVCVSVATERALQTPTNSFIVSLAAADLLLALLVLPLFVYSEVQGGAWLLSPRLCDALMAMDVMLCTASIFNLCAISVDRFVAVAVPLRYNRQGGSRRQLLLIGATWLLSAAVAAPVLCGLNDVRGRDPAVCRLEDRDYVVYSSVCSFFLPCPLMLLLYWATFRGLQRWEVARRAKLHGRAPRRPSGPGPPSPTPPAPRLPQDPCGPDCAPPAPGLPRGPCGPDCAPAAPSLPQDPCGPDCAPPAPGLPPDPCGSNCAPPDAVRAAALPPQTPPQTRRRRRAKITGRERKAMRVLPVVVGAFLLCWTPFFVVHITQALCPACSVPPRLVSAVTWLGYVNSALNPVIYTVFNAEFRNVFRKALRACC

[2] = target: Insulin receptor (Rattus norvegicus, UniProt P15127); type: cell membranes, Wistar, Liver, Membrane; also: in other assays of this panel Not Active means under 50% inhibition at 10 µM
Insulin receptor, sequence (P15127 27-759 limits assumed): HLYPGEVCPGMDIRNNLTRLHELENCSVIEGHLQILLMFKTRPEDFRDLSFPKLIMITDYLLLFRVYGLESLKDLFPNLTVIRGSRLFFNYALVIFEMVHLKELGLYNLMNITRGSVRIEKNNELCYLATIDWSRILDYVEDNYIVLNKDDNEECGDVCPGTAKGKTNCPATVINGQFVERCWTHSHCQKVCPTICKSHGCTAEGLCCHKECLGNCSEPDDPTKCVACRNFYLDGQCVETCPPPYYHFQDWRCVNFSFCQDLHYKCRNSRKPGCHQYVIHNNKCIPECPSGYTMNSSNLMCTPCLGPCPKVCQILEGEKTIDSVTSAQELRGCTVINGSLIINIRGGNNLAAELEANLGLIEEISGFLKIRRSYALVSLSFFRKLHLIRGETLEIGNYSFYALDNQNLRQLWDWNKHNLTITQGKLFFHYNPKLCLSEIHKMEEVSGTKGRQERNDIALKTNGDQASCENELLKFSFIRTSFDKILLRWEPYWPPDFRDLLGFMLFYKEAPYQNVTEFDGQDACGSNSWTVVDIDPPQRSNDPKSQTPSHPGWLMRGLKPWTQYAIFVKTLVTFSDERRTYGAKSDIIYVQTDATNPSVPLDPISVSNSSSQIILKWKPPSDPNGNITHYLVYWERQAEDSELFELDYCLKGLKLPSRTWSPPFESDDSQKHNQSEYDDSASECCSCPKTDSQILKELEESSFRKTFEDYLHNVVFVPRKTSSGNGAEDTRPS
Insulin receptor, sequence (P15127 764-1383 limits assumed): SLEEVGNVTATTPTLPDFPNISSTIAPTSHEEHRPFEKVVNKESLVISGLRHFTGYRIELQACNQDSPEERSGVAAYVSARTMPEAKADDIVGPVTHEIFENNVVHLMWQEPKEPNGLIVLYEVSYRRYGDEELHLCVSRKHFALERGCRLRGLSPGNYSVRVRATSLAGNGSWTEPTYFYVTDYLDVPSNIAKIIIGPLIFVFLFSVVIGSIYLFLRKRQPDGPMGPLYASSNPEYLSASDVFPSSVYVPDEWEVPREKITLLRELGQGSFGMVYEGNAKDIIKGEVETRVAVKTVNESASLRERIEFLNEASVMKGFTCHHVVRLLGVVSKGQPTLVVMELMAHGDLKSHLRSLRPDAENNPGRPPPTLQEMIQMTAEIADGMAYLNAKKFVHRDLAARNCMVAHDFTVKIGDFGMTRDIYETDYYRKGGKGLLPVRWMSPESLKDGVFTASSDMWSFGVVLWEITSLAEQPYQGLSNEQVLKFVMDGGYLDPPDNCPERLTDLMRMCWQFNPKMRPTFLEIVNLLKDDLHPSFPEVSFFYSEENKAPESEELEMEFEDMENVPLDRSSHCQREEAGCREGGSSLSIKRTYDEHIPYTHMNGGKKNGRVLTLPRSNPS

[3] = target: T2, B2 bradykinin receptor (Homo sapiens, UniProt P30411); type: cell membranes, Membrane; details: chem-1; also: in other assays of this panel Not Active means under 50% inhibition at 10 µM
T2 sequence (P30411 whole entry): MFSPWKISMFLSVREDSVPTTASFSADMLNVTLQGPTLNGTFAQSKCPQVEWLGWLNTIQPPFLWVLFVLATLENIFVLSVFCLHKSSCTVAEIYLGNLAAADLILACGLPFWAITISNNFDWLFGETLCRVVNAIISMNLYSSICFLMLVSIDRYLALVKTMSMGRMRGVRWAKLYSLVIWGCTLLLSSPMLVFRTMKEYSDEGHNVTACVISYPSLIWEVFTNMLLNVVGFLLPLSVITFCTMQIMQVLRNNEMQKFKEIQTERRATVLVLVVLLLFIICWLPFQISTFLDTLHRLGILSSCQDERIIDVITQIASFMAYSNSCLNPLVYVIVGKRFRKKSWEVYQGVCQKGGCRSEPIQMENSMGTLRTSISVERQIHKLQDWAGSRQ

[4] = target: T3, Receptor-type tyrosine-protein phosphatase C (Homo sapiens, UniProt P08575); set-up: species or system Escherichia coli;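 also: inhibition of CD45 enzyme activity measured using DiFMUP as substrate; in other assays of this panel Not Active means under 50% inhibition at 10 µM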
T3 sequence (P08575 whole entry): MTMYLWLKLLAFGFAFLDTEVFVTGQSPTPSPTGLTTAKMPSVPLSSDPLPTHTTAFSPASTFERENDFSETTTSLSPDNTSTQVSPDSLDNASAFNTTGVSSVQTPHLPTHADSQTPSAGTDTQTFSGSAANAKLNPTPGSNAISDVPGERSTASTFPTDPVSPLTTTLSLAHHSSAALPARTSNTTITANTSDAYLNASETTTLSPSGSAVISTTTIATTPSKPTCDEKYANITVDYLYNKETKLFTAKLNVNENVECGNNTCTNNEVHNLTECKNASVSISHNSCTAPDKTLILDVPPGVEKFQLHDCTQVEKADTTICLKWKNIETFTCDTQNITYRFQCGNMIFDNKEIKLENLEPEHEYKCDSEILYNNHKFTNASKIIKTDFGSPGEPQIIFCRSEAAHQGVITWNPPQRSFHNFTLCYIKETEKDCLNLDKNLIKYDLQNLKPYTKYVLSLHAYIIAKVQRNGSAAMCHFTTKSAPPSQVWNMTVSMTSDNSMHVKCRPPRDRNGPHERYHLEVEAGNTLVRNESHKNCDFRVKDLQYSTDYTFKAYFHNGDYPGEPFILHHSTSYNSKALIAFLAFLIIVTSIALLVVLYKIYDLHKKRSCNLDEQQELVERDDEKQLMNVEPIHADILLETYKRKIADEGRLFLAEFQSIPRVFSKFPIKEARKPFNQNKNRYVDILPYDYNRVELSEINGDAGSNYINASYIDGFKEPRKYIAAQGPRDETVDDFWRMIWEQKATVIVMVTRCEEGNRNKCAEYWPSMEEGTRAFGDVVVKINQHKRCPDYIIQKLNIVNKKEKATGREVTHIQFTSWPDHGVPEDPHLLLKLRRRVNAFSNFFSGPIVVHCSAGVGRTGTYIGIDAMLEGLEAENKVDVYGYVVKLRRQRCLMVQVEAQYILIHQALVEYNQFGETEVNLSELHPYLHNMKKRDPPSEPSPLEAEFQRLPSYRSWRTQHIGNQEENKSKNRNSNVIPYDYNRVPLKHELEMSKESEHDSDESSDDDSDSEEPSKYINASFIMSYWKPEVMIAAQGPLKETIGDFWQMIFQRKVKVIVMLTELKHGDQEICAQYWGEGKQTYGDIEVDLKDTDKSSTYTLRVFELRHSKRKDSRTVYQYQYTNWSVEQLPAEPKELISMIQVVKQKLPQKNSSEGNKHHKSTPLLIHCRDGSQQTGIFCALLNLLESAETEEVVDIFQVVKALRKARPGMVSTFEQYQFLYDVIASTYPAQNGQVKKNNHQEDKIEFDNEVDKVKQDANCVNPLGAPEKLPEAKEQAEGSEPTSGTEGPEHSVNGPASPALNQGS

[5] = target: T4, Amine oxidase [flavin-containing] A (Homo sapiens, UniProt P21397); assay: DRUGMATRIX: Monoamine Oxidase MAO-A enzyme inhibition (substrate: Kynuramine); set-up: species or system BTI-TN-5B1-4; details: bti-tn-5b1-4; Not Active = under 50% inhibition at 10 µM
T4 sequence (P21397 whole entry): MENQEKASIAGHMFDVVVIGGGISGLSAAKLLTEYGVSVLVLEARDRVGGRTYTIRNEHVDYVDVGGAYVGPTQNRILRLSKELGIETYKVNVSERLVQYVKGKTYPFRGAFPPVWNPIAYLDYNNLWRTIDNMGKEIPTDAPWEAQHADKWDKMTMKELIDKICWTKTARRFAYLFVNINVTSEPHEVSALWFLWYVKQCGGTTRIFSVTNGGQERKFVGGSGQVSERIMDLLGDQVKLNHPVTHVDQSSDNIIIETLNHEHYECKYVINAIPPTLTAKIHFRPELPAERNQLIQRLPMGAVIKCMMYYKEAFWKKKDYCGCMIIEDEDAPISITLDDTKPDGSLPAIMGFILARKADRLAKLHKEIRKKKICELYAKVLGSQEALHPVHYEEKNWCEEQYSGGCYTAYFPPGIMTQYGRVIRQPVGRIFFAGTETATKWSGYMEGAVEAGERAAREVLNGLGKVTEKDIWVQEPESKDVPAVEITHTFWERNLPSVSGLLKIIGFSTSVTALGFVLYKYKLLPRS

[6] = DRUGMATRIX: GABAA, Flunitrazepam, Central radioligand binding (ligand: [3H] Flunitrazepam); type: cell membranes, Rattus norvegicus, Wistar, Brain, Membrane; details: Not Active = under 50% inhibition at 10 µM

Cn1cnc([N+](=O)[O-])c1Sc1ncnc2nc[nH]c12 [AZATHIOPRINE]
Not Active: IC50 [1] | IC50 [2] | IC50 [3] | IC50 [4] | IC50 [5] | IC50 [6] | Ki [6]

CC1(C)S[C@@H]2[C@H](NC(=O)[C@H](NC(=O)N3CCNC3=O)c3ccccc3)C(=O)N2[C@H]1C(=O)O [AZLOCILLIN]
Not Active: IC50 [1] | IC50 [2] | IC50 [3] | IC50 [4] | IC50 [5] | IC50 [6] | Ki [6]

CC[C@H](C)[C@H](N)C1=N[C@H](C(=O)N[C@@H](CC(C)C)C(=O)N[C@H](CCC(=O)O)C(=O)N[C@H](C(=O)N[C@H]2CCCCNC(=O)[C@H](CC(N)=O)NC(=O)[C@@H](CC(=O)O)NC(=O)[C@H](Cc3cnc[nH]3)NC(=O)[C@@H](Cc3ccccc3)NC(=O)[C@H]([C@@H](C)CC)NC(=O)[C@@H](CCCN)NC2=O)[C@@H](C)CC)CS1 [BACITRACIN] ({Ileψ(thiazoline)Cys}-L[dE]IK[dOrn]I[dF]H[dD]N; lactam 4-C)
Not Active: IC50 [1] | IC50 [2] | IC50 [3] | IC50 [4] | IC50 [5] | IC50 [6] | Ki [6]

CCOC(=O)c1ccc(N)cc1 [BENZOCAINE]
Not Active: IC50 [1] | IC50 [2] | IC50 [3] | IC50 [4] | IC50 [5] | IC50 [6] | Ki [6]

OCc1ccccc1 [BENZYL ALCOHOL]
Not Active: IC50 [1] | IC50 [2] | IC50 [3] | IC50 [4] | IC50 [5] | IC50 [6] | Ki [6]

CC(C)(Oc1ccc(CCNC(=O)c2ccc(Cl)cc2)cc1)C(=O)O [BEZAFIBRATE]
Not Active: IC50 [1] | IC50 [2] | IC50 [3] | IC50 [4] | IC50 [5] | IC50 [6] | Ki [6]

CCCC[C@@H](CC)COC(=O)c1ccccc1C(=O)OC[C@@H](CC)CCCC [BIS(2-ETHYLHEXYL)PHTHALATE]
Not Active: IC50 [1] | IC50 [2] | IC50 [3] | IC50 [4] | IC50 [5] | IC50 [6] | Ki [6]

Oc1c(Cl)cc(Cl)cc1Sc1cc(Cl)cc(Cl)c1O [BITHIONOL]
Not Active: IC50 [1] | IC50 [2] | IC50 [3] | IC50 [4] | IC50 [5] | IC50 [6] | Ki [6]

Brc1ccccc1 [BROMOBENZENE]
Not Active: IC50 [1] | IC50 [2] | IC50 [3] | IC50 [4] | IC50 [5] | IC50 [6] | Ki [6]

CCCCOC(=O)c1ccc(N)cc1 [BUTAMBEN]
Not Active: IC50 [1] | IC50 [2] | IC50 [3] | IC50 [4] | IC50 [5] | IC50 [6] | Ki [6]

CC[C@@]1(O)C(=O)OCc2c1cc1n(c2=O)Cc2cc3ccccc3nc2-1 [CAMPTOTHECIN]
Not Active: IC50 [1] | IC50 [2] | IC50 [3] | IC50 [4] | IC50 [5] | IC50 [6] | Ki [6]

COCc1c(C(C)C)nc(C(C)C)c(/C=C/[C@@H](O)C[C@@H](O)CC(=O)O)c1-c1ccc(F)cc1 [CERIVASTATIN]
Not Active: IC50 [1] | IC50 [2] | IC50 [3] | IC50 [4] | IC50 [5] | IC50 [6] | Ki [6]

CC(=O)O[C@]1(C(C)=O)CC[C@H]2[C@@H]3C=C(Cl)C4=CC(=O)CC[C@]4(C)[C@H]3CC[C@@]21C [CHLORMADINONE ACETATE]
Not Active: IC50 [1] | IC50 [2] | IC50 [3] | IC50 [4] | IC50 [5] | IC50 [6] | Ki [6]

O=C1CCc2cc(OCCCCc3nnnn3C3CCCCC3)ccc2N1 [CILOSTAZOL]
Not Active: IC50 [1] | IC50 [2] | IC50 [3] | IC50 [4] | IC50 [5] | IC50 [6] | Ki [6]

O=C(O)c1cn(C2CC2)c2cc(N3CCNCC3)c(F)cc2c1=O [CIPROFLOXACIN]
Not Active: IC50 [1] | IC50 [2] | IC50 [3] | IC50 [4] | IC50 [5] | IC50 [6] | Ki [6]

CN(C)CCCC1(c2ccc(F)cc2)OCc2cc(C#N)ccc21 (configuration not stated) [CITALOPRAM]
Not Active: IC50 [1] | IC50 [2] | IC50 [3] | IC50 [4] | IC50 [5] | IC50 [6] | Ki [6]
